The test system of one assay is RAW 264.7 cells. The assay can be described thus: NO secretion level in RAW 264.7 culture supernatant. The class given is cell-based, mouse. The settings on record: TIP1 and LPS. The protocol: (§1) RAW 264.7 cells and mBMDM cells were dispensed into 96-well plates (BD Biosciences) to a cell number of 2×10^5 cells/well and incubated overnight. Then, a NO level of the culture supernatant was measured using a NO detection kit (iNtRON Biotechnology Inc., Seongnam, Korea). Absorbance was measured at 550 nm using a microplate reader spectrophotometer (Molecular Devices Inc.), and the results were analyzed using Softmax Pro 5.3 software (Molecular Devices Inc.).
In addition, according to the method described in Example 2-7, a NO level in the culture supernatant of RAW 264.7 cells was measured using a NO detection kit. The results are illustrated in FIGS. 5(a)-5(c).

Assay [1] deals with C57BL/6J mice, mouse sepsis model. The assay is described as follows: Renal and hepatic damage markers and cytokines in plasma, mouse sepsis model (24 hours). The class given is in vivo. The settings on record: TIP1 and LPS. As for the experimental part: Using the isolated plasma, secretion levels of TNF-α and IL-6 were measured by the method in Experimental Example 9, and changes in secretion levels of the renal damage markers, blood urea nitrogen (BUN) and creatinine (Cr), and the hepatic damage markers, aspartate aminotransferase (AST) and alanine aminotransferase (ALT) were analyzed through VETTEST-8008-system (IDEXX). The results are illustrated in FIGS. 16(a)-16(f).

In assay [2] the test system is RAW 264.7 cells (LPS-induced TLR4 signaling). The assay is described as follows: Cytokine secretion (ELISA) in LPS-treated RAW 264.7 cells. The class given is cell-based, mouse. The settings on record: TIP1 and LPS. The protocol:
(§2) RAW 264.7 cells, THP1 cells, and mBMDM cells were dispensed into 96-well plates to a cell number of 2×10^5 cells/well, or into 24-well plates to a cell number of 5×10^5 cells/well. Incubation was performed overnight. Subsequently, combined treatment with TIP1 and LPS was performed. After 24 hours, secretion levels of IFN-β, IL-6, and TNF-α were measured using a […] (BioLegend), Mouse IL-6 Platinum ELISA (eBiosciences), and a Mouse TNF alpha ELISA Ready SET-Go! kit (eBiosciences). Absorbance was measured at 450 nm using a microplate reader spectrophotometer (Molecular Devices), and the results were analyzed using Softmax Pro 5.3 software (Molecular Devices Inc.).
TNF-α, IL-6, IFN-β levels in the culture supernatant of RAW 264.7 cells were measured using mouse TNF-α, IL-6, IFN-β Ready-SET-Go! ELISA kits according to the method described in Example 2-5. The results are illustrated in FIGS. 4(a)-4(c).
Background: An ELISA detects its analyte on a solid surface through an enzyme-linked reagent.

Assay [3] deals with mBMDM cells (LPS-induced). The assay is described as follows: LPS-induced cytokine and NO secretion in mBMDM cells. The class given is cell-based, mouse. The protocol: as §2, §1
TNF-α, IL-6, IFN-β levels in the culture supernatant of mBMDM cells were measured using mouse TNF-α, IL-6, IFN-β Ready-SET-Go! ELISA kits according to the method described in Example 2-5, and a NO level in the supernatant was measured according to the method described in Example 2-7. The results are illustrated in FIGS. 6(a)-6(d).

In a further assay the test system is TLR4 signaling pathways. The assay is described as follows: Western blotting of NF-κB, IRF3 and MAPK in LPS-treated RAW 264.7 cells. The class given is cell-based, mouse. The protocol:
In order to perform Western blotting, a pre-protein extraction solution (M-PER, Thermo Fisher Scientific Inc.) was mixed with a protease and phosphatase inhibitor mixture, and was added to RAW 264.7 cell or hPBMC cell pellets. The pellets were cooled for 10 minutes, and then the lysates were centrifuged at 16000×g for 10 minutes. Then, NE-PER nuclear and cytoplasmic extraction reagents (Thermo Fisher Scientific Inc.) were used to extract cytoplasmic and nuclear proteins, respectively, and a BCA kit (Sigma-Alderich Co. LLC) was used to measure concentrations of the proteins. Subsequently, the same amounts of proteins were developed on SDS-polyacrylamide gels, and electrophoresis was performed using the Mini-PROTEAN Tetra Cell two-dimensional electrophoresis system (Bio-Rad Laboratories, Hercules, Calif., USA). The membrane was immunoblotted with primary antibodies by gentle shaking overnight at a temperature of 4° C. (in which the primary antibodies were antibodies against p-p65, p-JNK, p-IRF3, ERK, p38, and human IL-1β (Cell Signaling Technology Inc., Danvers, Mass., USA); p-ERK, p-p38, Iκ-Bα, JNK, ATF3, COX2, caspase-1, and β-actin (Santa Cruz Biotechnology Inc., Santa Cruz, Calif., USA); iNOS (BD Biosciences); IL-6 and mouse IL-1β (R&D Systems Inc., Minneapolis, Minn., USA); TNF-α (Thermo Fisher Scientific, Inc.); NLRP3 (Adipogen, San Diego, Calif., USA)). Then, after thorough shaking with PBST, the membrane was incubated with anti-mouse/-rabbit HRP-conjugated secondary antibodies (Thermo Fisher Scientific Inc.) for 2 hours; and the proteins were detected with SuperSignal West Pico ECL solution (Thermo Fisher Scientific Inc.) and were visualized with the Fuji LAS-3000 system (Fujifilm, Tokyo, Japan).
TLR4-mediated responses induced by LPS induce direct interactions between the TIR domain of TIRAP and MyD88, thereby activating MyD88-dependent signaling pathways. In addition, the TLR4-mediated responses induce interactions between the TIR domain of TRAM and TRIF, thereby also activating MyD88-independent signaling pathways. […]
For orientation: Immunoblotting shows a protein as a band on a membrane.

A further assay concerns the target T1, TLR1/2 (Mus musculus, UniProt Q9EPQ1+Q9QUN7).
T1 construct: host or cells: RAW 264.7
The assay is described as follows: TNF-α secretion in RAW 264.7 cells with PAM3CSK4. The class given is cell-based.

[4] abbreviates: LPS together with TIP1, FIG. 2(a).

T1 sequence (Q9EPQ1 26-795): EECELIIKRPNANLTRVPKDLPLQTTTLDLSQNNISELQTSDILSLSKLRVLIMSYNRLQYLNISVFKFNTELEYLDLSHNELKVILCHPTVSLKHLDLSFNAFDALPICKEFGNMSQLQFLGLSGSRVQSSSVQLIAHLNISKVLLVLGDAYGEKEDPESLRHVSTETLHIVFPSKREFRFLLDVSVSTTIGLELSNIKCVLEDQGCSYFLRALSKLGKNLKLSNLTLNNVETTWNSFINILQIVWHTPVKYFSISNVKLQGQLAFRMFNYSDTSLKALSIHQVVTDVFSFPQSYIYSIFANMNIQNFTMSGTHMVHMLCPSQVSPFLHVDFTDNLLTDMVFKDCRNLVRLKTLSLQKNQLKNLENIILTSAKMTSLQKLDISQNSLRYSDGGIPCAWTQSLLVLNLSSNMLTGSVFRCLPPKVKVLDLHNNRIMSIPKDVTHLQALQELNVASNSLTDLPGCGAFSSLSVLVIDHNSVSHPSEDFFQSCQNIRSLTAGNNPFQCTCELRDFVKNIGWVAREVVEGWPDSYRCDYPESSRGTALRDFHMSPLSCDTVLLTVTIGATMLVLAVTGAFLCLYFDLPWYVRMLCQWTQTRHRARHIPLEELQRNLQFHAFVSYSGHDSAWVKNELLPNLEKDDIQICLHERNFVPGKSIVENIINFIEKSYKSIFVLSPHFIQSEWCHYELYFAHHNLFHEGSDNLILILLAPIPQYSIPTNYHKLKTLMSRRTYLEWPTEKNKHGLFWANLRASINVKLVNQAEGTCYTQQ
T1 sequence (Q9QUN7 25-784): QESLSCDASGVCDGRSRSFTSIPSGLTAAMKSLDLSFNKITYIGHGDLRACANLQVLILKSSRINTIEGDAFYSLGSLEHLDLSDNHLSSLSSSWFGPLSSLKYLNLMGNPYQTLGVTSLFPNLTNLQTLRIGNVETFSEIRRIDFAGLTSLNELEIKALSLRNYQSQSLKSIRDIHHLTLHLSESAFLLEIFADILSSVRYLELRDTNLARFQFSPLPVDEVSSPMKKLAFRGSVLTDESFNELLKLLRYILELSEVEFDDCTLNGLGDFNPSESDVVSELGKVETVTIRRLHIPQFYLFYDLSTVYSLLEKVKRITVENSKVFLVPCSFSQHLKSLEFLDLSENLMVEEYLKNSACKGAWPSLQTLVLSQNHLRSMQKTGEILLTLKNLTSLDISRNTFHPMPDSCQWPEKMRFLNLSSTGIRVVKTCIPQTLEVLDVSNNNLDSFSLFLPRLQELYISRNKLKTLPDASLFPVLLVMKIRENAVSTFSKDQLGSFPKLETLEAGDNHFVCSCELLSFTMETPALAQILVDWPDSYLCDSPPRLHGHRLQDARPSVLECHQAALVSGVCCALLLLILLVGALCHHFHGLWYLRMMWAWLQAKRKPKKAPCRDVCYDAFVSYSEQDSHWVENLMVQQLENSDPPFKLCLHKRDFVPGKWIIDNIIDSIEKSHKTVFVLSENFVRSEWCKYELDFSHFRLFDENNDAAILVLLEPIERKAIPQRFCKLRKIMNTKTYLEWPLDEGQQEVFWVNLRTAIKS

RQIKIWFQNRRMKWKKSHCRVLLI (TIP1): the “extracellular secretion of NO” value with RAW 264.7 cells is reported as “effectively decreased”. In addition, in assay [1], the “alanine aminotransferase (ALT), hepatic damage marker” value is recorded as “remarkably decreased”; the “aspartate aminotransferase (AST), hepatic damage marker” value is “remarkably decreased”; the “blood urea nitrogen (BUN), renal damage marker” value was “remarkably decreased”; the “creatinine (Cr), renal damage marker” value was “remarkably decreased”. In addition, in assay [1], the “secretion level of IL-6 in plasma” value is “remarkably decreased” and the “secretion level of TNF-α in plasma” value is given as “remarkably decreased”. Also, in assay [2], the “secretion of IFN-β” value is listed as “decreased in a concentration-dependent manner”, the “secretion of IL-6” value was “decreased in a concentration-dependent manner” and the “secretion of TNF-α” value is reported as “decreased in a concentration-dependent manner”. In assay [3], the “LPS-induced secretion level of IL-6” value is on record as “decreased”, the “LPS-induced secretion level of NO” value is “decreased” and the “LPS-induced secretion level of TNF-α” value is reported as “decreased”. Besides, in the assay with TLR4 signaling pathways (setting [4]), the “NF-κB activity (Western blotting)” value is “NF-κB activity was inhibited”; the “degree of degradation of Iκ-Bα, and activity of IRF3 and ATF3” value is on record as “decreased”. The “MAPK activity (phosphorylation of ERK, JNK, p38)” value in the assay on TLR4 signaling pathways (LPS together with TIP1, FIG. 2(b)) is recorded as “MAPK activity was inhibited”. The “secretion level of TNF-α” value in the assay with TLR1/2 is given as “decreased”.

(Values after patent US11352399B2, “Peptide for toll-like receptor (TLR) inhibition and pharmaceutical composition comprising same” (GENESEN CO., LTD., priority 2017, dated 2022).)
